Experimental findings from patent US20080210128A1, “Optical Layer including mu-oxo-bridged boron-subphthalocyanine dimer” (ORIENT CHEMICAL INDUSTRIES, LTD., priority 2007, published 2008) are described below.

Values after ≈ are worked out from the molar mass of the structure shown. Like-named read-outs stand apart in the source and are kept apart here.

Data set [1] is described as follows: Absorption spectrum in chloroform (spectral photometer UV-1700). Type of data set: physicochemical.
Data set [2] in a line: Dissolution of colorant on preparing the coating agent. To be noted: 0.5 parts by weight colorant in methyl ethyl ketone / cyclohexanone with polymethacrylate. Type of data set: physicochemical. As to the method: 0.1 parts by weight of the Compound obtained in the Manufacturing Example 1 and 15 parts by weigh of polymethacrylate were mixed and dissolved into 50 parts by weight of methyl ethyl ketone and 35 parts by weight of cyclohexanone by stirring, and liquid coating agent was prepared.
In Comparative Example 2, a thin layer was prepared by the same procedures as Example 1 except for using a coating agent prepared by using Intermediate Compound A-1 obtained in Manufacturing Example 1 instead of using Compound 1 used in Example 1. Incidentally, the additive amount of colorant to prepare a coating agent was changed to 0.5 parts by weight. […] Therefore, a coating agent was obtained as dispersion.

Data set [3] in a line: Solubility in methyl ethyl ketone. From the text:
Incidentally, a spectral photometer of UV-1700 available from Shimadzu Corporation was used.

A word on the Solubility: it is the dissolved amount per volume that the medium holds. In data set [1], `ClB1n2c3c4ccccc4c2N=c2c4ccccc4c(n21)=NC1=NC(=N3)c2ccccc21` [Intermediate Compound A-1, SubPcBCl, reference compound] came in with a maximum absorption wavelength of 565 nm and a molar absorption coefficient of 51000 dm^3mol^−1cm^−1. The “dissolution in coating agent” value in data set [2] was “did not dissolve completely”. Further, the Solubility in data set [3] amounted to 0.025 mg/mL (≈ 58 µM).
{(C8H17O)3SubPcB}2O [Compound 3]: in data set [1], the maximum absorption wavelength came to 543 nm and the molar absorption coefficient is reported as 87000 dm^3mol^−1cm^−1. Further, the Solubility in data set [3] was 83.2 mg/mL.
On to (t-Bu3SubPcB)2O [Compound 2], for which, in data set [1], the maximum absorption wavelength worked out at 543 nm and the molar absorption coefficient was determined as 61000 dm^3mol^−1cm^−1. For the same compound, the Solubility in data set [3] (solvent: methyl ethyl ketone) amounted to 58.5 mg/mL.
As for “SubPcBOH [Intermediate Compound B-1, reference compound]”, in data set [1], the maximum absorption wavelength is 562 nm and the molar absorption coefficient is recorded as 45000 dm^3mol^−1cm^−1.
In data set [1], `c1ccc2c(c1)C1=Nc3c4ccccc4c4n3[B-]3(O[B-]56n7c8c9ccccc9c7N=c7c9ccccc9c(n75)=NC5=[N+]6C(=N8)c6ccccc65)n5c(c6ccccc6c5=N4)=NC2=[N+]13` (stereo not drawn) [Compound 1, (SubPcB)2O] displayed a maximum absorption wavelength of 532 nm and a molar absorption coefficient of 106000 dm^3mol^−1cm^−1. Besides, in data set [3] (solvent: methyl ethyl ketone), the Solubility is 1.14 mg/mL (≈ 1410 µM).
